According to ChEMBL document CHEMBL4152373 (Bioorg Med Chem, 2018):

Key:
[1] = Half life in Sprague-Dawley rat at 1 mg/kg, iv administered as single dose by LC-MS/MS analysis; assay type: ADME, organism-based; conditions: in vivo
[2] = Fraction unbound in rat plasma at 5 uM after 4 hrs by equilibrium dialysis method
[3] = system: Rattus norvegicus; test: Unbound clearance in Sprague-Dawley rat at 1 mg/kg, iv administered as single dose by LC-MS/MS analysis; assay type: ADME, organism-based; conditions: in vivo
[4] = system: Mus musculus; test: Antidiabetic activity in C57Bl/6J mouse assessed as inhibition of blood glucose AUC (0 to 120 mins) at 50 mg/kg, po treated prior to glucose challenge by OGTT relative to control; assay type: functional
[5] = Oral bioavailability in Sprague-Dawley rat at 3 mg/kg administered via gavage as single dose by LC-MS/MS analysis; assay type: ADME, organism-based; conditions: in vivo
[6] = system: Rattus norvegicus; test: Dose normalized unbound AUC in Sprague-Dawley rat at 3 mg/kg, po administered via gavage as single dose by LC-MS/MS analysis; assay type: ADME, organism-based; conditions: in vivo
[7] = Fraction unbound in mouse plasma at 5 uM after 4 hrs by equilibrium dialysis method
[8] = Octanol-PBS buffer partition coefficient, log D of the compound at pH 7.4 by HPLC method
[9] = system: Mus musculus; test: Dose normalized unbound AUC in C57Bl/6J mouse at 50 mg/kg, po administered via gavage as single dose by LC-MS/MS analysis; assay type: ADME, organism-based; conditions: in vivo
[10] = Octanol-PBS buffer partition coefficient, log D of the compound at pH 7.4 by shake flask method
[11] = system: Mus musculus; test: Antidiabetic activity in C57Bl/6J mouse assessed as inhibition of blood glucose AUC (0 to 120 mins) at […], po treated prior to glucose challenge by OGTT relative to control; assay type: functional; conditions: AT84, po
[12] = system: Mus musculus; test: Dose normalized unbound AUC in C57Bl/6J mouse at 3 mg/kg, po administered via gavage as single dose by LC-MS/MS analysis; assay type: ADME, organism-based; conditions: in vivo

Structure (SMILES) | half-life [1] [h] | fraction unbound at 4 h, 5 µM [2] | CL free [3] [mL/min/kg] | inhibition in vivo at 50 mg/kg [4] [%] | bioavailability [5] [%] | fAUC/dose [6] [µM·min] | fraction unbound at 4 h, 5 µM [7] | logD [8] | fAUC/dose [9] [µM·min] | logD [10] | inhibition in vivo at […] [11] [%] | fAUC/dose [12] [µM·min]
COc1ccc(-c2ccc(Cl)cc2-c2csc(N(C(=O)[C@@H](CC(=O)O)Cc3ccco3)C3CC3)n2)cn1 | 9.65 | 0.0026 | 2738 | 32 | 38 | 0.26 | 0.0041 | 2.5 | 1.2 | – | – | –
O=C(O)C[C@@H](CC1CCCC1)C(=O)N(c1nc(-c2ccccc2-c2ccc(-n3cccn3)nc2)cs1)C1CC1 | 2.58 | 0.0013 | 6692 | 40 | 25 | 0.07 | 0.0014 | 3.1 | 0.53 | – | – | –
O=C(O)C[C@@H](Cc1ccccc1)C(=O)N(c1nc(-c2cc(Cl)ccc2Cl)cs1)C1CC1 | 9.83 | 0.0001 | 2800 | 5 | 47 | 0.26 | 0.0001 | 3 | 0.32 | – | – | –
CN(C(=O)[C@@H](CC(=O)O)Cc1ccccc1)c1nc(-c2ccccc2Cl)cs1 | 8.03 | 0.0008 | 738 | -8 | 77 | 2.4 | 0.0015 | 2.13 to 2.3 | 2 | 2.31 | – | –
CC(C)C[C@H](CC(=O)O)C(=O)N(c1nc(-c2ccccc2-c2ccc(-n3cccn3)nc2)cs1)C1CC1 | 4.67 | 0.0057 | 1091 | 26 | 29 | 0.55 | 0.0075 | 2.4 | 3.3 | – | – | –
CN(C(=O)[C@H](CC(=O)O)Cc1ccccc1)c1nc(-c2ccccc2Cl)cs1 | – | – | – | – | – | – | – | 2.3 | – | – | – | –
CN(C(=O)[C@@H](CC(=O)O)CC1CCCC1)c1nc(-c2ccccc2Cl)cs1 | – | – | – | – | – | – | – | 2.74 to 2.9 | – | 2.87 | – | –
CC(C)[C@H](C(=O)Nc1nccs1)c1ccc(Cl)cc1 | 3.67 | 0.0062 | 6666 | – | 15 | 0.08 | 0.0052 | 3.9 to 4.08 | – | 3.94 | 7 | 0.045
CN(C(=O)[C@@H](CC(=O)O)CC1CCOCC1)c1nc(-c2ccccc2Cl)cs1 | – | – | – | – | – | – | – | 1.27 to 1.3 | – | 1.27 | – | –
COc1ccc(-c2ccccc2-c2csc(N(C(=O)[C@@H](CC(=O)O)CC(C)C)C3CC3)n2)cn1 | 7.18 | 0.0066 | 342 | 19 | 35 | 2.1 | 0.0107 | 2.2 | 4.7 | – | – | –
O=C(O)C[C@@H](Cc1ccccc1)C(=O)N(c1nc(-c2ccccc2Cl)cs1)C1CC1 | 5.32 | 0.0016 | 1044 | 1 | 52 | 0.7 | 0.0025 | 2.3 | 4.7 | – | – | –
